# Values joined by “and” are separate entries in the source; they are usually repeats but may differ in a detail not shown here. Identical values can stand only once.
# Legend:
# [1] = test system: PHTX-21c primary human mCRC tumor xenograft; test: 5F9 vcMMAE single agent efficacy in PHTX-21c; assay type: in vivo, SCID mice; details: for anti-tumor activity maintained post-dosing: last dose on day 22
# [2] = test system: PHTX-17c primary human mCRC tumor xenograft; test: 5F9 vcMMAE single agent efficacy in PHTX-17c; assay type: in vivo, SCID mice
# [3] = test system: PHTX-11c primary human mCRC tumor xenograft; test: 5F9 vcMMAE single agent efficacy in PHTX-11c; assay type: in vivo, SCID mice
# PHTX-17c s.c. xenograft = test: MLN0264 and CPT-11 in PHTX-17C s.c. xenografts (Study CPGC-11-EF06); assay type: in vivo, CB-17 SCID mice
# Experimental: (§1) Tumor volume was calculated using the formula: […]
# [4] = test system: PHTX-215 Pa primary human pancreatic tumor xenograft; test: Single-agent 5F9 vcMMAE in PHTX-215 Pa pancreatic xenograft; assay type: in vivo, mice
# Text: (§2) The purpose of this study was to evaluate in vivo anti-tumor activity induced by combined administration of the 5F9 vcMMAE immunoconjugate (sometimes referred to herein as “MLN0264”) and gemcitabine in mouse xenograft primary human tumor explants (PHTX models of pancreatic cancer. These models included tumor tissue from patients with wild-type and mutant KRAS. Five pancreatic PHTX were generated by Champions Oncology (Hackensack, N.J.) using their CTG platform. 2 PHTX models were developed in-house. GCC expression was evaluated in each of the 7 PHTX models using the automated IHC assay described above.
# (§3) In vivo anti-tumor studies of single-agent 5F9 vcMMAE immunoconjugate was conducted in all seven of the pancreatic subcutanreous xenograft mouse models. Animals were administered vehicle, free MMAE at 0.135 mg/kg once weekly (QW), a non-GCC targeting ADC at 7.5 mg/kg QW, or 5F9 vcMMAE at 3.75 or 7.5 mg/kg QW. The results for single agent activity of the immunoconjugate in PHTX-215 Pa and PHTX-249 Pa models is shown in FIGS. 15A and 15B, respectively.
# [5] = test system: CTG pancreatic PHTX models (Champions Oncology); test: Single-agent 5F9 vcMMAE in Champions CTG pancreatic PHTX models; assay type: in vivo, mice
# Text: as §2, §3
# [6] = test system: PHTX-249 Pa s.c. xenograft; test: 5F9 vcMMAE and gemcitabine in PHTX-249 Pa s.c. xenografts (Study CPGC-13-EF05); assay type: in vivo, CB-17 SCID mice; details: group A: MLN0264 7.5 mg/kg QW; reference vehicle
# Experimental: (§4) Day D0 was the first day of treatment.
# as §1
# (§5) A negative dAUC is interpreted as an increase in AUC relative to the reference. It is important to evaluate not only the P value, but also the dAUC. Comparisons with significant P values, but small dAUC values, may not be of interest.
# [7] = test system: PHTX-249 Pa s.c. xenograft; test: 5F9 vcMMAE and gemcitabine in PHTX-249 Pa s.c. xenografts (Study CPGC-13-EF08); assay type: in vivo, CB-17 SCID mice
# Experimental: 264.4 ul stock Gemcitabine into 3135.6 ul NS.
# as §4, §1, §5
# PHTX-21c s.c. xenograft = test: MLN0264 and CPT-11 in PHTX-21C s.c. xenografts (Study CPGC-11-EF04)
# Experimental: (§6) The endpoints for each treatment group was either a) tumor volume reaches 10% body weight; or b) body weight loss of >20%. The projected tumor volume at the study initiation date was 200 mm^3.
# (§7) Not greater than one day prior to dosing, all animals were weighed to the nearest gram and grouped. Dosing solutions were vortexed prior to each administration to ensure correct delivery of compound. Animals received approximately 0.1 ml doses administered I.V. using a 1 cc syringe, 27-30 gauge, ½-¾ inch in length.
# (§8) Tumor volume measurements were obtained twice per week using Vernier calipers (0.01 mm). Tumor volume was calculated using the formula:
# Efficacy was evaluated in terms of % tumor growth inhibition (TGI) and tumor growth delay (TGD). TGI was assessed on an arbitrary day (when the maximum tumor volume (MTV of the control treatment group reaches the maximum allowable tumor volume), using the following formula:
# TGD was assessed by calculating T−C, where T=mean time (in days) for treatment group tumors to reach a predetermined size (e.g., 1,000 mm^3), and where C=mean time (in days) for the control group tumors to reach a predetermined size.
# To compare pairs of treatment groups, the following mixed-effects linear regression model was fit to the data using the maximum likelihood method:
# (§9) The predicted differences in the log tumor values (Yijk−Yi0k, which can be interpreted as log10 (fold change from day 0)) were taken from the above models to calculate mean AUC values for each treatment group. A dAUC value was then calculated as:
# For synergy analyses, the observed differences in the log tumor values were used to calculate AUC values for each animal. […] The AUC for the control, or vehicle, group was calculated using the predicted values from the pairwise models described above.
# PHTX-09c s.c. xenograft = test: 5F9 vcMMAE and cisplatin in PHTX-09c s.c. xenografts (Study CPGC-11-EF05); details: reference vehicle
# Experimental: as §6, §7, §8
# Efficacy was evaluated in terms of % tumor growth inhibition (TGI) and tumor growth delay (TGD); the difference in days for treated vs. control tumors to reach final study volume).
# TGI was assessed on an arbitrary day (when the maximum tumor volume (“MTV” of the control treatment group reaches the maximum allowable tumor volume), using the following formula:
# TGD was assessed by calculating T−C, where T=mean time (in days) for treatment group tumors to reach a predetermined size, and where C=mean time (in days) for the control group tumors to reach a predetermined size (e.g., 1,000 mm^3).
# as §9
# For synergy analyses, the observed differences in the log tumor values were used to calculate AUC values for each animal. […] The AUC for the control, or vehicle, group was calculated using the predicted values from the pairwise models described above. A measure of synergy was defined as follows:
# where Ak and Bk are the k^th animal in the individual treatment groups and ABk is the k^th animal in combination treatment group. […] The standard error of the synergy score was calculated as the square root of the sum of squared standard errors across groups A, B, and AB. […]
# [8] = group A: MLN0264 7.5 mg/kg QW, reference vehicle
# [9] = PHTX-21c, ML0264 3.75 mg/kg i.v. QW
substance,measurement,setting,value
5F9 vcMMAE: 5F9 mAb conjugated to MMAE using a vc (Val-Cit) linker; average drug loading about 3.6,anti-tumor activity maintained post-dosing,[1]; 7.5 mg/kg,7-8 weeks
same,anti-tumor activity maintained post-dosing,[1]; 10 mg/kg,> 15 weeks
same,single agent anti-tumor activity,[1]; 3.75-10 mg/kg I.V. QW×4,Moderate to strong in vivo anti-tumor activity
same,T/C,"[1]; dose 3.75-10 mg/kg, QW, T/C=volume of tumor/control",0.23
same,single agent sensitivity,[2]; 0.9375 mg/kg-10 mg/kg I.V. QW×3 weeks,Moderate sensitivity
same,T/C,"[2]; dose 0.938-10 mg/kg, QW, T/C=volume of tumor/control",0.46
same,single agent sensitivity,[3]; 1.875-7.5 mg/kg I.V. QW×3 weeks,relatively resistant
same,T/C,"[3]; dose 1.875-7.5 mg/kg, on BIW",0.5 on
same,Days to 1000 mm^3,"PHTX-17c s.c. xenograft; PHTX-17c, ML0264 7.5 mg/kg QW",>17 days
same,Mean tumor volume ± S.E.M (mm3),"PHTX-17c s.c. xenograft; PHTX-17c, ML0264 7.5 mg/kg QW",886.1 ± 187.9 mm3
same,T/C,"PHTX-17c s.c. xenograft; PHTX-17c, ML0264 7.5 mg/kg QW",0.49
same,TGI,"PHTX-17c s.c. xenograft; PHTX-17c, ML0264 7.5 mg/kg QW",51%
same,dAUC,PHTX-17c s.c. xenograft; [8],28.9%
same,tumor regressions (animals),"[4]; PHTX-215 Pa (KRAS wt), 7.5 mg/kg QW",3 out of 8
same,tumor growth inhibition,"[4]; PHTX-215 Pa, 7.5 mg/kg QW, by day 22",significantly great tumor growth inhibition (TGI) versus free MMAE
same,"TGI, %","[4]; single agent, model PHTX-215, KRAS wild-type, QWx3, day 21",79%
same,"TGI, %","[5]; model CTG-0300, KRAS Mut G12V, QWx5, day 28",64%
same,"TGI, %","[5]; model CTG-0301, KRAS wild-type, QWx3, day 21",24%
same,"TGI, %","[5]; model CTG-0302, KRAS Mut G12R, QWx3, day 21",36%
same,"TGI, %","[5]; model CTG-0303, KRAS wild-type, QWx5, day 38",45%
same,"TGI, %","[5]; model CTG-0492, KRAS Mut G12V, QWx3, day 21",62%
same,dAUC,[6],26.4%
same,tumor regressions (animals),"[7]; PHTX-249 Pa (Studies CPGC-13-EF05/EF08), 5F9 vcMMAE 7.5 mg/kg, gemcitabine 15 mg/kg on days 1 and 3, alone or combined",no tumor regressions
same,dAUC,[7]; [8],28.9%
same,single agent anti-tumor activity,"PHTX-21c s.c. xenograft; PHTX-21c, 3.75 mg/kg",relatively low anti-tumor activity
same,Days to 1000 mm^3,PHTX-21c s.c. xenograft; [9],>15 days
same,Mean tumor volume ± S.E.M (mm3),PHTX-21c s.c. xenograft; [9],869.1 ± 105.2 mm3
same,T/C,PHTX-21c s.c. xenograft; [9],0.64
same,TGI,PHTX-21c s.c. xenograft; [9],36.3%
same,dAUC,PHTX-21c s.c. xenograft; Treated group A (ML0264 3.75 mg/kg) vs reference V (vehicle),25.1%
same,dAUC,PHTX-09c s.c. xenograft; group A: MLN0264 1.875 mg/kg IV QW x3,17.8%
same,dAUC,"PHTX-09c s.c. xenograft; group B: MLN0264 3.75 mg/kg IV QW x3, 3.75 mg/kg",28.4% and 44.8%

# — patent US20140356383A1, “ADMINISTRATION OF AN ANTI-GCC ANTIBODY-DRUG CONJUGATE AND A DNA DAMAGING AGENT IN THE TREATMENT OF CANCER” (priority 2013, published 2014)
